Patent publication US20050250677A1, “Glycopeptide antibiotic derivatives” (priority 2002, published 2005)
Read-outs that look alike come from different tables or passages of the source.

Key:
HIV-1 (IIIB) = experiment: Inhibition of HIV-1 (IIIB)-induced cytopathicity (giant cell formation) in CEM cells; assay type: cell-based; details: read-out: EC50 HIV-1 (concentration required to inhibit HIV-induced giant cell formation by 50%); HIV-1, CEM cell cultures
Method: (§1) A variety of glycopeptide antibiotic derivatives of vancomycin, eremomycin and teicoplanin including their aglycon derivatives were evaluated for their inhibitory activity against HIV-1 (IIIB) and HIV-2(ROD) in CEM cell cultures.

HIV-2(ROD) = experiment: Inhibition of HIV-2 (ROD)-induced cytopathicity (giant cell formation) in CEM cells; assay type: cell-based; details: read-out: EC50 HIV-2 (concentration required to inhibit HIV-induced giant cell formation by 50%); HIV-2, CEM cell cultures
Method: as §1

murine leukemia L1210 = experiment: Cytostatic activity assay, L1210 cells; assay type: cell-based; details: read-out: IC50 L1210 (compound concentration required to inhibit tumor cell proliferation by 50%)
[1] = system: human lymphocyte Molt4/clone 8; experiment: Cytostatic activity assay, Molt4/clone 8 cells; assay type: cell-based; details: read-out: IC50 Molt4/C8 (compound concentration required to inhibit tumor cell proliferation by 50%)
human lymphocyte CEM = experiment: Cytostatic activity assay, CEM cells; assay type: cell-based; details: read-out: IC50 CEM (compound concentration required to inhibit tumor cell proliferation by 50%)
VZV (wild-type strains) = experiment: Anti-VZV assay (wild-type strains): virus-induced cytopathicity in HEL cell cultures; assay type: cell-based, varicella-zoster virus; details: HEL cell cultures
HEL cells [2] = details: anti-VZV table
HEL cells [3] = details: read-out: CC50 (HEL); HEL cells; anti-VZV table
[4] = VZV strain OKA, read-out: EC50 VZV (OKA)
[5] = VZV strain YS, read-out: EC50 VZV (YS)

Compound | EC50 (HIV-1 (IIIB)) [µM] | EC50 (HIV-2(ROD)) [µM] | IC50 (murine leukemia L1210) [µM] | IC50 [1] [µM] | IC50 (human lymphocyte CEM) [µM] | EC50 (VZV (wild-type strains); [4]) [µM] | EC50 (VZV (wild-type strains); [5]) [µM] | MTC (HEL) (HEL cells [2]) | CC50 (HEL cells [3]) [µM]
CCCCCCCCCC[N+](C)(C)CCCNCc1c(O)cc2c(c1O)-c1cc(ccc1O)C1NC(=O)C3NC(=O)C(CC(N)=O)NC(=O)C(NC(=O)C(CC(C)C)NC)C(O)c4ccc(c(Cl)c4)Oc4cc3cc(c4OC3OC(CO)C(O)C(O)C3OC3CC(C)(N)C(O)C(C)O3)Oc3ccc(cc3)C(OC3CC(C)(N)C(O)C(C)O3)C(NC1=O)C(=O)NC2C(=O)NCCCN(C)C (stereo not shown) [Compound 4] | 7 | > 20 | 16 ± 6 | 33 ± 5 | 27 ± 7 | – | – | – | –
Teicoplanin [reference compound] | 18 ± 3.5 | 100 | > 500 | > 500 | > 500 | – | – | – | –
CN(Cc1ccc(-c2ccccc2)cc1)Cc1c(O)cc2c(c1O)-c1cc(ccc1O)C1NC(=O)C3NC(=O)C4NC(=O)C(Cc5ccc(c(Cl)c5)Oc5cc3cc(c5O)Oc3ccc(cc3Cl)C(O)C(NC1=O)C(=O)NC2C(=O)O)NC(=O)C(N)c1ccc(O)c(c1)Oc1cc(O)cc4c1 (stereo not shown) [Compound 117] | – | – | – | – | – | 2.9 | 2.7 | ≧5-80 μM | > 50
CNCc1c(O)cc2c(c1O)-c1cc(ccc1O)C1NC(=O)C3NC(=O)C4NC(=O)C(Cc5ccc(c(Cl)c5)Oc5cc3cc(c5O)Oc3ccc(cc3Cl)C(O)C(NC1=O)C(=O)NC2C(=O)O)NC(=O)C(NC(=O)OC(C)(C)C)c1ccc(O)c(c1)Oc1cc(O)cc4c1 (stereo not shown) [Compound 140] | – | – | – | – | – | 13 | – | ≧50-200 μM | > 50
CCCCCCCCCC[N+](C)(C)CCCNCc1c(O)cc2c(c1O)-c1cc(ccc1O)C1NC(=O)C3NC(=O)C4NC(=O)C(Cc5ccc(cc5)Oc5cc3cc(c5OC3OC(C(=O)O)C(O)C(O)C3N)Oc3ccc(cc3Cl)C(O)C(NC1=O)C(=O)NC2C(=O)O)NC(=O)C(NC)c1ccc(O)c(c1)Oc1cc(O)c(Cl)c4c1 (stereo not shown) [Compound 95] | 3.5 | ≥ 20 | – | – | 92 | – | – | – | –
O=C1NC2C(=O)NC3C(=O)NC4C(=O)NC(C(=O)NC(C(=O)O)c5cc(O)cc(O)c5-c5cc4ccc5O)C(O)c4ccc(c(Cl)c4)Oc4cc3cc(c4O)Oc3ccc(cc3Cl)CC1NC(=O)C(NC(=O)C13CC4CC(CC(C4)C1)C3)c1ccc(O)c(c1)Oc1cc(O)cc2c1 (stereo not shown) [Compound 164] | 10 | 4 | – | – | – | – | – | – | –
CCCCc1ccc(CNCC(=O)N2CCN(Cc3c(O)cc4c(c3O)-c3cc(ccc3O)C3NC(=O)C5NC(=O)C6NC(=O)C(Cc7ccc(c(Cl)c7)Oc7cc5cc(c7O)Oc5ccc(cc5Cl)C(O)C(NC3=O)C(=O)NC4C(=O)NC)NC(=O)C(N)c3ccc(O)c(c3)Oc3cc(O)cc6c3)CC2)cc1 (stereo not shown) [Compound 143] | – | – | – | – | – | 2.8 | 2.6 | ≧20-50 μM | > 50
CCCCCCCCCCNCc1c(O)cc2c(c1O)-c1cc(ccc1O)C1NC(=O)C3NC(=O)C4NC(=O)C(Cc5ccc(c(Cl)c5)Oc5cc3cc(c5O)Oc3ccc(cc3Cl)C(O)C(NC1=O)C(=O)NC2C(=O)NCCCN(C)C)NC(=O)C(NC(=O)C(N)CCCCN)c1ccc(O)c(c1)Oc1cc(O)cc4c1 (stereo not shown) [Compound 121] | – | – | – | – | – | 2.3 | 3.1 | ≧5-20 μM | 40
CCCCc1ccc(CNCC(=O)N2CCN(Cc3c(O)cc4c(c3O)-c3cc(ccc3O)C3NC(=O)C5NC(=O)C6NC(=O)C(Cc7ccc(c(Cl)c7)Oc7cc5cc(c7O)Oc5ccc(cc5Cl)C(O)C(NC3=O)C(=O)NC4C(=O)O)NC(=O)C(N)c3ccc(O)c(c3)Oc3cc(O)cc6c3)CC2)cc1 (stereo not shown) [Compound 142] | – | – | – | – | – | 20 | – | 50 µM | > 50
CCCCCCCCCC(=O)N1CCN(Cc2c(O)cc3c(c2O)-c2cc(ccc2O)C2NC(=O)C4NC(=O)C5NC(=O)C(Cc6ccc(c(Cl)c6)Oc6cc4cc(c6O)Oc4ccc(cc4Cl)C(O)C(NC2=O)C(=O)NC3C(=O)O)NC(=O)C(N)c2ccc(O)c(c2)Oc2cc(O)cc5c2)CC1 (stereo not shown) [Compound 141] | – | – | – | – | – | 7.1 | – | 50 µM | > 50
CCCCc1ccc(CNCc2c(O)cc3c(c2O)-c2cc(ccc2O)C2NC(=O)C4NC(=O)C5NC(=O)C(Cc6ccc(c(Cl)c6)Oc6cc4cc(c6O)Oc4ccc(cc4Cl)C(O)C(NC2=O)C(=O)NC3C(=O)O)NC(=O)C(N)c2ccc(O)c(c2)Oc2cc(O)cc5c2)cc1 (stereo not shown) [Compound 136] | – | – | – | – | – | 3.1 | 4.1 | 20 to 50 µM | > 50
CCCCc1ccc(CNC2C(Oc3c4cc5cc3Oc3ccc(cc3Cl)C(O)C3NC(=O)C(NC(=O)C5NC(=O)C5NC(=O)C(Cc6ccc(cc6)O4)NC(=O)C(NC)c4ccc(O)c(c4)Oc4cc(O)c(Cl)c5c4)c4ccc(O)c(c4)-c4c(cc(O)c(CN5CCN(Cc6ccc(-c7ccccc7)cc6)CC5)c4O)C(C(=O)O)NC3=O)OC(C(=O)O)C(O)C2O)cc1 (stereo not shown) [Compound 93] | 3.5 | 22 | – | – | 81 | – | – | – | –
CCCCCCCNC(=O)C1NC(=O)C2NC(=O)C(NC(=O)C3NC(=O)C(CC(N)=O)NC(=O)C(NC(=O)C(CC(C)C)NC)C(O)c4ccc(c(Cl)c4)Oc4cc3cc(c4OC3OC(CO)C(O)C(O)C3OC3CC(C)(N)C(O)C(C)O3)Oc3ccc(cc3)C2OC2CC(C)(N)C(O)C(C)O2)c2ccc(O)c(c2)-c2c(O)cc(O)cc21 (stereo not shown) [Compound 77] | – | – | – | – | – | 7 | 5 | ≧20-50 μM | 129
CCCCc1ccc(CNC(=O)C2NC(=O)C3NC(=O)C(NC(=O)C4NC(=O)C(CC(N)=O)NC(=O)C(NC(=O)C(CC(C)C)NC)C(O)c5ccc(c(Cl)c5)Oc5cc4cc(c5OC4OC(CO)C(O)C(O)C4OC4CC(C)(N)C(O)C(C)O4)Oc4ccc(cc4)C3OC3CC(C)(N)C(O)C(C)O3)c3ccc(O)c(c3)-c3c(O)cc(O)cc32)cc1 (stereo not shown) [Compound 76] | – | – | – | – | – | 2.7 | > 2 | ≧5-20 μM | 98
NC1C(=O)NC2Cc3ccc(c(Cl)c3)Oc3cc4cc(c3O)Oc3ccc(cc3Cl)C(O)C3NC(=O)C(NC(=O)C4NC(=O)C(NC2=O)c2cc(O)cc(c2)Oc2cc1ccc2O)c1ccc(O)c(c1)-c1c(cc(O)c(CN2CCN(Cc4ccc(Cl)cc4)CC2)c1O)C(C(=O)O)NC3=O (stereo not shown) [Compound 119] | – | – | – | – | – | 5 | – | 20 to 400 µM | > 50
NC1C(=O)NC2Cc3ccc(c(Cl)c3)Oc3cc4cc(c3OCc3ccc(-c5ccccc5)cc3)Oc3ccc(cc3Cl)C(O)C3NC(=O)C(NC(=O)C4NC(=O)C(NC2=O)c2cc(O)cc(c2)Oc2cc1ccc2O)c1ccc(O)c(c1)-c1c(O)cc(O)cc1C(C(=O)O)NC3=O (stereo not shown) [Compound 128] | – | – | – | – | – | 1.8 | 0.8 | 20 µM | 48
CCCCN(CCCC)c1ccc(CNC(=O)C2NC(=O)C3NC(=O)C(NC(=O)C4NC(=O)C5NC(=O)C(Cc6ccc(c(Cl)c6)Oc6cc4cc(c6O)Oc4ccc(cc4Cl)C3O)NC(=O)C(N)c3ccc(O)c(c3)Oc3cc(O)cc5c3)c3ccc(O)c(c3)-c3c(O)cc(O)cc32)cc1 (stereo not shown) [Compound 137] | – | – | – | – | – | 0.22 | 0.43 | >5 to 20 µM | 98
CCCCc1ccc(CNC2C(=O)NC3Cc4ccc(c(Cl)c4)Oc4cc5cc(c4O)Oc4ccc(cc4Cl)C(O)C4NC(=O)C(NC(=O)C5NC(=O)C(NC3=O)c3cc(O)cc(c3)Oc3cc2ccc3O)c2ccc(O)c(c2)-c2c(cc(O)c(CN3CCN(Cc5ccc(-c6ccccc6)cc5)CC3)c2O)C(C(=O)N2CCN(Cc3ccc(-c5ccccc5)cc3)CC2)NC4=O)cc1 (stereo not shown) [Compound 123] | – | – | – | – | – | 2.8 | – | ≧5-200 μM | > 50
CNC(=O)C1NC(=O)C2NC(=O)C(NC(=O)C3NC(=O)C4NC(=O)C(Cc5ccc(c(Cl)c5)Oc5cc3cc(c5O)Oc3ccc(cc3Cl)C2O)NC(=O)C(N)c2ccc(O)c(c2)Oc2cc(O)cc4c2)c2ccc(O)c(c2)-c2c(O)cc(O)cc21 (stereo not shown) [Compound 120] | – | – | – | – | – | 9 | 10 | ≧20-200 μM | > 200
NC1C(=O)NC2Cc3ccc(c(Cl)c3)Oc3cc4cc(c3O)Oc3ccc(cc3Cl)C(O)C3NC(=O)C(NC(=O)C4NC(=O)C(NC2=O)c2cc(O)cc(c2)Oc2cc1ccc2O)c1ccc(O)c(c1)-c1c(O)cc(O)cc1C(C(=O)N1CCN(N=Cc2ccc(Cl)cc2)CC1)NC3=O (stereo not shown) [Compound 113] | – | – | – | – | – | 0.68 | 0.42 | ≧5-20 μM | > 50
